Measured values reported in paper PMC9061822, “A novel SRSF3 inhibitor, SFI003, exerts anticancer activity against colorectal cancer by modulating the SRSF3/DHCR24/ROS axis” (Cell Death Discovery, 2022).
“Also recorded” adds a separate entry of the source.

Assays:
HCT-116 xenografts = HCT-116 xenografts in SCID mice; assay type: in vivo; details: two weeks; for number of tumors that disappeared: HCT-116 xenografts
Method: (§1) To explore the effect of SFI003 on the growth of CRC, approximately 3 × 10^6 HCT-116 cells or 8 × 10^6 SW480 cells were collected and mixed with Matrigel (Corning, NY, USA) at a 1:1 ratio by volume and then injected into the lower back region of mice. When tumors were palpable, mice were randomly divided into four groups. One group received vehicle as a control, while the other three groups were orally administered SFI003 at a dosage of 100 or 200 mg/kg or capecitabine at a dosage of 100 mg/kg for two continuous weeks. The tumor sizes and mouse body weights were monitored every other day. At the end of the experiment, tumors and blood samples were collected for further studies. The tumor size was evaluated according to Eq.: tumor size (mm^3) = (length × width^2) × 0.5.

SW480 xenografts = SW480 xenografts in SCID mice; assay type: in vivo
Method: as §1

[1] = Tissue distribution in ICR mice; assay type: in vivo; details: oral 100 mg/kg
Method: 29 the blood samples by centrifuging at 5,000 rpm under 4℃ for 5 min. For
30 determination of SFI003 concentration in mice tissues, the male ICR mice (n=3) were
31 orally administrated with 100mg/kg SFI003, and the liver and kidney of the mice were
32 collected at 0.25, 0.5, 1, 2, 4, 8, and 12 h after administration. An aliquot of 25 µl plasma
33 or tissue sample was added into 100 µl acetonitrile containing internal standard
34 Tolbutamide. The mixture was vortexed for 3 min and centrifuged at 13,000 rpm for 10
35 min. An aliquot of 10 µl resulting supernatant was injected to LC -MS/MS system
36 (API4000 QTrap; AB Sciex) for compound analysis. The analytes were separated in a
37 Venusil XBP-C18 column (2.1×50 mm, 5 μm; Agela, China) using the mixture of 5mM
38 NH4OAc-0.1% formic acid (A) and methanol (B) as mobile phase. The gradient
39 condition was: 1.3 min, 2%B; 2.0 min, 90%B; 3.5 min, 90%B; 3.8 min, 2%B. The elutes
40 were detected by MS/MS spectrometry using ESI positive mode with m/z 271.1>172.2,
42 SFI003. […]

Plasma protein binding = assay type: in vitro ADME; details: read-out: plasma protein binding rate (converted)
ROS = experiment: Detection of ROS (DCFH-DA) in HCT-116 and SW480 cells; assay type: cell-based, Human; details: HCT-116 and SW480, 10, 20 and 50 μM, 72 h, dose-dependent
Method: Following treatment with SFI003 or siRNA, the cells were washed with PBS and incubated with DCFH-DA for 20 min at 37 °C. After washing three times, the cells were collected and measured at 488 nm excitation and 525 nm emission by a microplate reader (Tecan, Switzerland) according to the manufacturer’s instructions (Beyotime, Shanghai, China). The protein concentrations were determined by using a BCA assay (TaKaRa, Kusatsu, Japan).

HCT-116 and SW480 cells = experiment: Wound-healing and Transwell migration assays; assay type: cell-based, Human; details: HCT-116 and SW480, 10 μM, 24 h
Method: HCT-116 and SW480 cells were seeded into six-well plates in confluent monolayers. Then, the cells were transfected with 100 nM siRNA or treated with 10 μM SFI003. Scratch wounds were created using a sterilized tip in 0.5% serum medium. Images were captured at 0 h, 24 h, and 72 h after wounding. Three independent measurements of wound width were conducted.
HCT-116 and SW480 cells (1 × 10^5) were resuspended in 200 µl medium containing 0.1% serum and then added to the upper compartment of migration chambers (Costar, Corning, NY, USA). The bottom chamber was filled with 600 µl cell culture medium with 20% FBS as an attractant. After coculture for 24 h or 48 h, the cells were fixed in 4% paraformaldehyde and stained with 0.1% crystal violet. The stained cells in 8 random fields were counted at ×100 magnification. Three independent measurements were conducted.

SMILES: COc1ccc(-c2csc(N/N=C(\C)c3nc4ccccc4[nH]3)n2)cc1 [SFI003]
- growth of HCT-116 xenografts (HCT-116 xenografts; 100 or 200 mg/kg orally, dose-dependent): efficiently suppressed
- number of tumors that disappeared (HCT-116 xenografts; 100 mg/kg orally, 100 mg/kg): two and two of six
- number of tumors that disappeared (HCT-116 xenografts; 200 mg/kg orally): three
- growth of SW480 xenografts (SW480 xenografts; 100 or 200 mg/kg orally, two weeks, dose-dependent): efficiently suppressed
- body weight (SW480 xenografts; SW480 tumor-bearing mice, oral, two weeks): slight reduction
- antitumor activity compared with capecitabine (SW480 xenografts; SW480 xenografts, oral, two weeks, capecitabine 100 mg/kg): stronger inhibitory activity than capecitabine; also recorded: more potent antitumor efficacy than capecitabine
- concentration of SFI003 in tumors versus plasma (SW480 xenografts; mice grafted with SW480 cells, 100 mg/kg, 2 h): close to the plasma
- distribution to liver and kidney [1]: highly accumulated
- fraction unbound (Plasma protein binding): 0.586
- ROS level (ROS): significantly enhanced
- migration of CRC cells (HCT-116 and SW480 cells): repressed
